The values that follow are results of earlier work, collected in patent USRE39480E1, “Chromium/biotin treatment of type II diabetes” (Nutrition 21, Inc., priority 1997, dated 2007).

For data set [1], the system named is Type II diabetes. Conditions: doses which provide between 50 and 500 μg of chromium.
The subject of data set [2] is individuals with Type II diabetes. The note with it: 1,000 μg chromium per day as chromic tripicolinate.
The conditions of data set [3]: oral biotin intakes of up to 200 mg daily.
The test system of data set [4] is pre-diabetic Otsuka Long-Evans Tokushima Fatty rats. Conditions: high-dose oral or parenteral biotin.
Data set [5] has as its system rats made diabetic by injection with streptozotocin. Conditions: high-dose oral or parenteral biotin.
Data set [6] concerns diabetic KK mice. Conditions: high-dose oral or parenteral biotin.
The test system of data set [7] is poorly-controlled type II diabetics. The note with it: 3 mg biotin three times per day.
The test system of data set [8] is Type I diabetics. Conditions: daily oral dose of 16 mg; insulin injections temporarily discontinued.

Turning to chromic tripicolinate, in data set [1], the “change in glycosylated hemoglobin” value is recorded as “small decrease”. In data set [1] (still within the diabetic range), the “glycosylated hemoglobin value obtained after chromic tripicolinate treatment” value is on record as 10.4%. Moreover, in data set [2], the “decrease in glycosylated hemoglobin” value is 30%.
With `O=C(O)CCCC[C@@H]1SC[C@@H]2NC(=O)N[C@@H]21` [biotin], the “side effects or toxicities” value in data set [3] is reported as “no side effects or toxicities were noted”. Also, in data set [4], the oral glucose tolerance result is recorded as “improve oral glucose tolerance”. Also, in data set [5], the oral glucose tolerance result is given as “improve oral glucose tolerance”. The oral glucose tolerance entry in data set [6] is “improve oral glucose tolerance”. In data set [7], the fasting insulin levels result is listed as “did not decline”, the glucose levels result is listed as “sharp decline” and the “pancreatic beta cell function” value is reported as “improved pancreatic beta cell function”. Moreover, in data set [8], the “fasting plasma glucose levels” value is reported as “lowered fasting plasma glucose levels”.
